From patent US20140106387A1, “METHOD FOR CONTROLLING NAD(P)/NAD(P)H RATIO BY OXIDOREDUCTASE” (MD BIOALPHA CO., LTD., priority 2006, published 2014) come the findings set out here.

The test system of one assay is NQO1. In words: NAD(P)H recycling assay (decrease of NAD(P)H by NQO1-activating candidate compounds). The assay is classed as biochemical. As to the method: (10) NAD(P)H Recycling Assay
An NADH recycling assay was carried out using the above-extracted S9 supernatant or human recombinant NQO1 (hrNQO1). 20 μg of the S9 supernatant or 0.5 unit of hrNQO1 in conjunction with 200 μM NAD(P)H were added to a 25 mM Tris/HCl (pH 7.4) solution containing 0.2 mg/mL bovine serum albumin. The enzymatic reaction was initiated with addition of a […] compound and absorbance changes were monitored and recorded at 340 nm for 10 min.
For a variety of NQO1-activating candidate compounds as listed in Table 1 below, a decrease of NAD(P)H was measured based on the aforesaid experimental method (disclosed in Section 10 hereinbefore: NADH recycling assay). In addition, according to the experimental method given in Example 23, the body weight of ob/ob mice after four weeks was measured.
In this connection, the decreasing degree of NAD(P)H was expressed as a relative amount of NAD(P)H measured upon administration of the NQO1-activating candidate compound, by taking the amount of NAD(P)H in the absence of the NQO1 activator NAD(P)H to be 100. In addition, the degree of the body weight loss was expressed as a percentage of the body weight of ob/ob mice with administration of the NQO1-activating candidate compound, relative to the body weight of ob/ob mice without administration of the NQO1-activating candidate compound (control) after four weeks.

The next assay has as its system HepG2 cells. In words: mitochondrial membrane potential (TMRE fluorescence) in HepG2 cells. The assay is classed as cell-based, human. Particulars: NQO1-proficient HepG2 cells. As to the method: For determination of the inner mitochondrial membrane potential (ΔΨm), 20 nM of TMRE (tetramethylrhodamine ethyl ester) as a fluorescent indicator was continuously applied to be loaded on cells. In order to monitor mitochondrial Ca^2+, cells on glass coverslips were loaded with 10 μM Rhod-2 AM via cold loading/warm incubation. In order to monitor cytosolic Ca^2+, cells were co-loaded with 10 μM Fluo-4 AM at 37′C for 30 min. The cells were washed twice with a KB solution, and mounted in a perfusion chamber. Fluorescent imaging was taken using a confocal laser scanning microscope (LSM-510 META, Carl Zeiss) at a magnification of ×200 and ×400, in conjunction with appropriate laser lines and a filter set. Image analysis was carried out using LSM-510 META software (Zeiss). Images for TMRE (red fluorescence), Rhod-2 (red fluorescence) and Fluo-4 (green fluorescence) were obtained using an inverted Zeiss 510META laser-scanning confocal microscope equipped with ×63 numerical aperture, 1.4 oil-immersion planapochromat lens. Green fluorescence and red fluorescence were illuminated with light of 488 nm and 543 nm. Incident light was passed through a 545 nm dichroic mirror and observed via a 500 to 530 nm band-pass (green) filter and a 560 nm long-pass (red) barrier filter.
However, such effects were not observed in HEK293 cells. […]

For `CC1(C)CCC2=C(O1)c1ccccc1C(=O)C2=O` [βL, 2,2-Dimethyl-3,4-dihydro-2H-benzo[h]chromene-5,6-dione], the “Residual amount of NAD(P)H(%)” value with NQO1 (relative amount of NAD(P)H, amount in the absence of the NQO1 activator taken to be 100) is reported as 61.27 ± 1.09%. The “decrease of NAD(P)H and consequent body weight reduction” value with NQO1 (summary of Table 1 in words) is recorded as “significant decrease of NAD(P)H”. Also, in the assay on HepG2 cells, the “decrease of TMRE fluorescence” value was “about 20%”.
